One block for each molecule: values may come before it.
Experiments:
PAMPA permeability = settings: 5 hours at RT; for Papp at 5 h, 20 μM: PAMPA
Description: Parallel artificial membrane permeability (PAMPA) assay is a non-cell based assay designed to predict in vivo biological membrane permeability of drugs in early stage of drug discovery. […] The Corning Gentest Pre-coated PAMPA plate system was designed by 96-well insert system with a 0.45 μm PVDF (polyvinylidene fluoride) filter plate which has been pre-coated with structured tri-layers of phospholipids (lipid/oil/lipid) and a matched receiver microplate.
Donor solutions of test compounds (300 μL, 20 μM in PBS/MeOH 90:10) were added to each well of the donor plate. 200 μL of PBS/MeOH 90:10 was added to each well of the acceptor plate. The acceptor plate was coupled with the donor plate and incubated for 5 hours at room temperature (RT) without agitation. In each plate, compounds were tested in triplicate. At the end of the incubation, drug concentration in the initial donor solution, acceptor and the donor wells were determined using LC/MS/MS. A five (5) points standard curve from 0.1 to 1000 nM for each test compound were prepared. Analyte samples were diluted to within standard curve concentration with ACN/H2O 50:50 prior analysis.
All samples were analyzed by electrospray ionization (ESI) liquid chromatograph/mass spectrometry (LC/MS) system utilizing Sciex 5500 quadropule ion trap (Qtrap) mass spectrometry with Shidmazu Nexera X2 UHPLC. The LC-MS/MS instrument monitored each of the test compound in the study based of their respective mass-to-charge (m/z) transitions and MS parameters. Chromatographic separation was achieved on Phenomenex Luna C18 column (50×2.0 mm, 3 μm particle size) by using a gradient elution: mobile phase A contains 0.1% formic acid in water and mobile phase B contains 0.1% formic acid in acetonitrile; A/B (99:1) from 0 to 1 minutes; to A/B (1:99) from 1 to 4 minutes; A/B (1:99) from 4 to 8 minutes; to A/B (99:1) from 8 to 8.20 minutes; A/B (99:1) from 8.2 to 9 minutes. The flow rate was 0.4 mL/min and the column temperature was maintained at 35° C. and autosampler temperature at 4° C. For detection, the electrospray ionization operated in the positive mode using multiple reaction monitoring (MRM).
Data acquisition, and peak integrations were obtained by Analyst® Version 1.7.1 (Sciex) operating with Windows® (Microsoft). The standard curve regressions and sample concentrations were generated and calculated by Analyst®. Concentrations in the sample solutions were determined based on the measured peak area ratios from the response of the analyte to the internal standard with reference to the standard calibration curve. All sample calculations were calculated using a linear regression with 1/x^2 weighting (where x is the concentration of given calibration standard level).
Permeability of the test compounds was calculated using the following formula:
The permeability of compounds was evaluated with the parallel artificial membrane permeation assay (PAMPA) as an in vivo model of passive diffusion across a porous filter coated with a lipid/oil/lipid tri-layer artificial membrane. […] Donor solutions of test compounds (300 μL, 20 μM in PBS/MeOH 90:10) were added to each well of the donor plate. 200 μL of PBS/MeOH 90:10 was added to each well of the acceptor plate. The acceptor plate was coupled with the donor plate and incubated for 5 hours at room temperature (RT) without agitation. In each plate, compounds were tested in triplicate. At the end of the incubation, drug concentration in the initial donor solution, acceptor and the donor wells were determined using LC/MS/MS. Permeability of test compounds was calculated based on the formula described in the General Procedures above. The PAMPA permeability classification criteria are categorized into three (3) classes with a high (Pe≥1.5×10−6 cm/s), intermediate (5.5×10−8<Pe<1.5×10−6 cm/s), and low (Pe<5.5×10−8 cm/s) permeability.

[1] = test system: C57BL/6 mice with DSS colitis; assay: DSS colitis in C57BL/6 mice; type: in vivo; settings: 25 mg/kg PO daily; day twelve
Procedure: Dextran sodium sulfate (DSS) was added to the water 24 hrs after compound administration and weight was measured daily.
C57BL/6 mice (20-22 grams) were fed ad lib and assigned to 4 different groups (n=8/group). […] A control group received vehicle alone. After 24 hrs, mice were weighed and DSS was added to their drinking water. Mice were then treated with the test compounds and weighed daily and the DSS water was replenished every 72 hrs for 5 days, at which point, it was replaced by regular drinking water. Mice were sacrificed on day twelve and clinical scored was assessed. Intestinal tissue for and blood were also collected. Tissues were either flash frozen and kept in −80° C. for RNA and protein isolation or placed in 10% formalin solution for future histological analysis. Blood was spun at 5K rpm for 5 min and serum was collected and kept at −20° C. for multiplex cytokine analysis.
DSS colitis mouse model: C57BL/6 mice (20-22 grains) are fed ad lib and assigned to different groups (n=8/group). […] A control group receives vehicle alone. After 24 h, mice are weighed and DSS is added to their drinking water. Mice are then treated with the test compounds and weighed daily and the DSS water is replenished every 72 liars for 5 days, at which point, it is replaced by regular drinking water. Mice are sacrificed on day twelve and clinical scored was assessed. Intestinal tissue for and blood are also collected. Tissues are either flash frozen and kept in −80° C. for RNA and protein isolation or placed in 10% formalin solution for future histological analysis.

[2] = test system: CaCo-2 intestinal epithelial cells; assay: Transepithelial resistance (TEER) of CaCo-2 cells exposed to TNFα and IFNγ; type: cell-based; settings: CaCo-2; TNFα along with compounds
Procedure: The intestinal epithelial barrier plays a central role in the pathophysiology of multiple chronic inflammatory and autoimmune diseases. Intestinal epithelial cells provide a physical barrier that interacts with immune cells and protects internal cavities from mucosal bacterial and antigen intrusion. Intestinal inflammation during IBD is associated with disruption of this barrier and cytokines like TNFα play important roles.
At confluence TEER is measured and TNFα along with compounds are added as described above. Compound-induced TEER is determined after correction with measurement prior to treatment.

[3] = PAMPA permeability Classification, 20 μM donor
[4] = Permeability, Pe, 20 μM donor in PBS/MeOH 90:10

Papp at 5 h, 20 μM (PAMPA permeability; [3]): < 0.055 ×10⁻⁶ cm/s
Papp at 5 h, 20 μM (PAMPA permeability; [4]): 0.0096 ×10⁻⁶ cm/s
Molecule: COc1cc2c(NC3CCN(C(C)C)CC3)nc(N3CCCN(C)CC3)nc2cc1OCCCN1CCCCC1 [Compound 403, reference compound]

Molecule: 4-(4-((1-cyclopropylpiperidin-4-yl)amino)-6-methoxy-7-(3-(pyrrolidin-1-yl)propoxy)quinazolin-2-yl)thiomorpholine 1,1-dioxide [Compound 405, reference compound]
Permeability, Pe (PAMPA permeability; 20 μM donor in PBS/MeOH 90:10): 0.101 ×10⁻⁶ cm/s

Molecule: COc1cc2c(N[C@@H]3CCCOC3)nc(N3CCC(F)(F)CC3)nc2cc1OCCCN1CCCC1 [Compound 12, (R)-2-(4,4-difluoropiperidin-1-yl)-6-methoxy-7-(3-(pyrrolidin-1-yl)propoxy)-N-(tetrahydro-2H-pyran-3-yl)quinazolin-4-amine]
DSS Efficacy [1]: ++
TEER [2]: ++

Molecule: COc1cc2c(NC3CCCS(=O)(=O)C3)nc(N3CCC(F)(F)CC3)nc2cc1OCCCN1CCCC1 (centres unmarked) [Compound 15, 3-((2-(4,4-difluoropiperidin-1-yl)-6-methoxy-7-(3-(pyrrolidin-1-yl)propoxy)quinazolin-4-yl)amino)tetrahydro-2H-thiopyran 1,1-dioxide]
DSS Efficacy [1]: +
TEER [2]: ++

Molecule: COc1cc2c(NC3CCS(=O)(=O)CC3)nc(N3CCC3)nc2cc1OCCCN1CCCC1 [Compound 81, 4-((2-(azetidin-1-yl)-6-methoxy-7-(3-(pyrrolidin-1-yl)propoxy)quinazolin-4-yl)amino)tetrahydro-2H-thiopyran 1,1-dioxide]
DSS Efficacy [1]: ++
TEER [2]: +

Molecule: COc1cc2c(NCC#N)nc(N3CCC(F)(F)CC3)nc2cc1OCCCN1CCCC1 [Compound 49, 2-((2-(4,4-difluoropiperidin-1-yl)-6-methoxy-7-(3-(pyrrolidin-1-yl)propoxy)quinazolin-4-yl)amino)acetonitrile]
DSS Efficacy [1]: −
TEER [2]: −

Molecule: COc1cc2c(NCN3CCNCC3)nc(-c3cnc(C)s3)nc2cc1OCCCN1CCCC1 [Compound 213]
DSS Efficacy [1]: +
TEER [2]: +

Molecule: COc1cc2c(NC3CCCS(=O)(=O)C3)nc(N3CCC3)nc2cc1OCCCN(C)C (centres unmarked) [Compound 137]
DSS Efficacy [1]: +
TEER [2]: +

Molecule: COc1cc2c(Nc3ccccn3)nc(N3CCC(F)(F)CC3)nc2cc1OCCCN1CCCC1 [Compound 34, 2-(4,4-difluoropiperidin-1-yl)-6-methoxy-N-(pyridin-2-yl)-7-(3-(pyrrolidin-1-yl)propoxy)quinazolin-4-amine]
DSS Efficacy [1]: −
TEER [2]: −

Molecule: COc1cc2c(NC3CCOCC3)nc(-c3ccc(C)o3)nc2cc1OCCCN1CCCC1 [Compound 180, 6-methoxy-2-(5-methylfuran-2-yl)-7-(3-(pyrrolidin-1-yl)propoxy)-N-(tetrahydro-2H-pyran-4-yl)quinazolin-4-amine]
DSS Efficacy [1]: ++
TEER [2]: ++

Molecule: COc1cc2c(NCN3CCOCC3)nc(N3CCC(F)(F)CC3)nc2cc1OCCCN1CCCC1 [Compound 17, 2-(4,4-difluoropiperidin-1-yl)-6-methoxy-N-(morpholinomethyl)-7-(3-(pyrrolidin-1-yl)propoxy)quinazolin-4-amine]
DSS Efficacy [1]: +
TEER [2]: +

Molecule: COc1cc2c(NCO)nc(N3CCC(F)(F)CC3)nc2cc1OCCCN1CCCC1 [Compound 61, ((2-(4,4-difluoropiperidin-1-yl)-6-methoxy-7-(3-(pyrrolidin-1-yl)propoxy)quinazolin-4-yl)amino)methanol]
DSS Efficacy [1]: +
TEER [2]: +

Molecule: COc1cc2c(NC3CCN(C(C)C)CC3)nc(N3CCOCC3)nc2cc1OCCCN1CCCC1 [Compound 404, reference compound]
Papp at 5 h, 20 μM (PAMPA permeability; [3]): < 0.055 ×10⁻⁶ cm/s
Papp at 5 h, 20 μM (PAMPA permeability; [4]): 0.00624 ×10⁻⁶ cm/s

Molecule: COc1cc2c(NC3CCS(=O)(=O)CC3)nc(C3CC3)nc2cc1OCCCN1CCCC1 [Compound 99, 4-((2-cyclopropyl-6-methoxy-7-(3-(pyrrolidin-1-yl)propoxy)quinazolin-4-yl)amino)tetrahydro-2H-thiopyran 1,1-dioxide]
DSS Efficacy [1]: ++
TEER [2]: ++

Molecule: COc1cc2c(NC3CCOCC3)nc(N3CCCC3)nc2cc1C#CCN1CCCC1 [Compound 250]
DSS Efficacy [1]: ++
TEER [2]: ++

Molecule: COc1cc2c(NC3CCS(=O)(=O)CC3)nc(SC(C)C)nc2cc1OCCCN1CCCC1 [Compound 105]
DSS Efficacy [1]: +
TEER [2]: +

Molecule: COc1cc2c(NC3CCCOC3)nc(N3CCC(F)(F)CC3)nc2cc1OCCCN1CCCC1 (centres unmarked) [Compound 14, 2-(4,4-difluoropiperidin-1-yl)-6-methoxy-7-(3-(pyrrolidin-1-yl)propoxy)-N-(tetrahydro-2H-pyran-3-yl)quinazolin-4-amine]
DSS Efficacy [1]: ++
TEER [2]: +

Molecule: COc1cc2c(NC3CCS(=O)(=O)CC3)nc(N3CCCC3)nc2cc1C#CCN1CCCC1 [Compound 254]
DSS Efficacy [1]: +
TEER [2]: +

Molecule: COc1cc2c(NCCCOC(C)C)nc(N3CCC(F)(F)CC3)nc2cc1OCCCN1CCCC1 [Compound 21, 2-(4,4-difluoropiperidin-1-yl)-N-(3-isopropoxypropyl)-6-methoxy-7-(3-(pyrrolidin-1-yl)propoxy)quinazolin-4-amine]
DSS Efficacy [1]: +
TEER [2]: −

Molecule: COc1cc2c(N[C@]3(N(C)C)C[C@@H](C)O[C@@H](C)C3)nc(N3CCC(F)(F)CC3)nc2cc1OCCCN1CCCC1 [Compound 25, (2R,4r,6S)—N-(2-(4,4-difluoropiperidin-1-yl)-6-methoxy-7-(3-(pyrrolidin-1-yl)propoxy)quinazolin-4-yl)-N′,N′,2,6-tetramethyltetrahydro-4H-pyran-4,4-diamine]
DSS Efficacy [1]: +
TEER [2]: +

Molecule: COc1cc2c(NC3CCOCC3)nc(N3CCCCC3)nc2cc1OCCCN1CCCC1 [Compound 173, 6-methoxy-2-(piperidin-1-yl)-7-(3-(pyrrolidin-1-yl)propoxy)-N-(tetrahydro-2H-pyran-4-yl)quinazolin-4-amine]
DSS Efficacy [1]: ++
TEER [2]: ++

Reference: patent US11485728B2, “Small molecules for the treatment of autoimmune diseases and cancer” (Athos Therapeutics, Inc., priority 2020, dated 2022)
